Values joined by “and” are separate entries in the source; they are usually repeats but may differ in a detail not shown here. Identical values can stand only once. Toxic doses and inconclusive results are not listed.
System: P388 leukemia ip, CD2F1 mice, survival T/C
Assay: NCI In Vivo Anticancer Drug Screen. Data for tumor model P388 Leukemia (intraperitoneal) in CD2F1 (CDF1) mice
Settings: endpoint: median survival time, higher = longer survival
Method: The antitumor activity of compounds was measured in mice bearing transplantable tumors. Survival or tumor size were measured and the results are expressed as the measurement made in the treated group (T) divided by the measurement made in the vehicle treated control group (C). The tumor model used in this assay is P388 Leukemia (intraperitoneal) in CD2F1 (CDF1) mice

[1] = dose: 60.0 mg/kg/injection, schedule: Q01DX005 (ip), vehicle: saline with Tween-80
[2] = dose: 120.0 mg/kg/injection, schedule: Q01DX005 (ip), vehicle: saline with Tween-80
[3] = dose: 240.0 mg/kg/injection, schedule: Q01DX005 (ip), vehicle: saline with Tween-80
[4] = dose: 100.0 mg/kg/injection, schedule: Q04DX003 (ip), vehicle: saline with Tween-80

CC(C)N(/C=C/C(=O)c1ccccc1)C(C)C
T/C (dose: 12.5 mg/kg/injection, schedule: Q01DX009 (ip), vehicle: saline with Tween-80): 99 % of control
T/C (dose: 25.0 mg/kg/injection, schedule: Q01DX009 (ip), vehicle: saline with Tween-80): 100 % of control
T/C (dose: 50.0 mg/kg/injection, schedule: Q01DX009 (ip), vehicle: saline with Tween-80): 94 % of control and 95 % of control

CCCCN(C)c1ncnc2[nH]ncc12
T/C (dose: 100.0 mg/kg/injection, schedule: Q04DX003 (ip), vehicle: saline): 100 % of control

Cc1cc2cc3c(c(C(=O)O)c2o1)C(=O)c1ccccc1C3
T/C [1]: 107 % of control
T/C [2]: 111 % of control
T/C [3]: 94 % of control

Cc1ccc(S(=O)(=O)N/N=C/c2ccc(N(C)C)cc2)cc1
T/C (dose: 12.5 mg/kg/injection, schedule: Q01DX009 (ip), vehicle: other): 113 % of control
T/C (dose: 25.0 mg/kg/injection, schedule: Q01DX009 (ip), vehicle: other): 96 % of control
T/C (dose: 50.0 mg/kg/injection, schedule: Q01DX009 (ip), vehicle: other): 109 % of control
T/C (dose: 100.0 mg/kg/injection, schedule: Q01DX009 (ip), vehicle: other): 100 % of control
T/C (dose: 200.0 mg/kg/injection, schedule: Q01DX009 (ip), vehicle: other): 106 % of control
T/C (dose: 400.0 mg/kg/injection, schedule: Q01DX009 (ip), vehicle: other): 100 % of control

CCN(CC)CCCC(C)NCC#CCNC(C)CCCN(CC)CC (centres undefined)
T/C (dose: 1.56 mg/kg/injection, schedule: Q01DX009 (ip), vehicle: water): 105 % of control
T/C (dose: 3.13 mg/kg/injection, schedule: Q01DX009 (ip), vehicle: water): 108 % of control
T/C (dose: 6.25 mg/kg/injection, schedule: Q01DX009 (ip), vehicle: water): 104 % of control
T/C (dose: 12.5 mg/kg/injection, schedule: Q01DX009 (ip), vehicle: water): 105 % of control

CNC(=S)NNC(=O)C(Cc1ccc([N+](=O)[O-])cc1)C(=O)NNC(=S)NC
T/C (dose: 100.0 mg/kg/injection, schedule: Q04DX002 (ip), vehicle: saline): 98 % of control
T/C (dose: 200.0 mg/kg/injection, schedule: Q04DX002 (ip), vehicle: saline): 98 % of control
T/C (dose: 400.0 mg/kg/injection, schedule: Q04DX002 (ip), vehicle: saline): 90 % of control

O=C1OC2=C(CCCCC2)C(N2CCCCC2)C12SCCCS2 (centres undefined)
T/C (dose: 66.0 mg/kg/injection, schedule: Q04DX003 (ip), vehicle: saline with Tween-80): 100 % of control and 96 % of control
T/C [4]: 98 % of control and 91 % of control
T/C (dose: 150.0 mg/kg/injection, schedule: Q04DX003 (ip), vehicle: saline with Tween-80): 110 % of control and 93 % of control
T/C (dose: 200.0 mg/kg/injection, schedule: Q04DX003 (ip), vehicle: saline with Tween-80): 104 % of control
T/C (dose: 400.0 mg/kg/injection, schedule: Q04DX003 (ip), vehicle: saline with Tween-80): 93 % of control

N#CC(C(=O)C(=O)Nc1ccc(Cl)c(Cl)c1)c1c(Cl)cccc1Cl (centres undefined)
T/C [1]: 102 % of control
T/C [2]: 97 % of control
T/C [3]: 89 % of control

CN1C(=O)CCC1c1nc2ccccc2[nH]1 (centres undefined)
T/C [1]: 102 % of control
T/C [2]: 101 % of control
T/C [3]: 96 % of control

O=C(O)c1cc2c(cc1S(=O)(=O)O)C1C(C3C2C2(Cl)C(Cl)=C(Cl)C3(Cl)C2(Cl)Cl)C2(Cl)C(Cl)=C(Cl)C1(Cl)C2(Cl)Cl (centres undefined)
T/C (dose: 50.0 mg/kg/injection, schedule: Q01DX009 (ip), vehicle: saline): 105 % of control
T/C (dose: 100.0 mg/kg/injection, schedule: Q01DX009 (ip), vehicle: saline): 100 % of control
T/C (dose: 200.0 mg/kg/injection, schedule: Q01DX009 (ip), vehicle: saline): 100 % of control

CC(=O)N1N=C(C)C2ON=C(c3ccc(Cl)cc3)P21 (centres undefined)
T/C (dose: 50.0 mg/kg/injection, schedule: Q01DX005 (ip), vehicle: Klucel (hydroxypropylcellulose) (HPC)): 107 % of control
T/C (dose: 100.0 mg/kg/injection, schedule: Q01DX005 (ip), vehicle: Klucel (hydroxypropylcellulose) (HPC)): 100 % of control
T/C (dose: 200.0 mg/kg/injection, schedule: Q01DX005 (ip), vehicle: Klucel (hydroxypropylcellulose) (HPC)): 100 % of control

NC(N)=NS(=O)(=O)c1ccc(N=NC2=C(O)C(c3ccccc3)N(c3ccccc3)C2=O)cc1 (centres undefined)
T/C (dose: 100.0 mg/kg/injection, schedule: Q01DX001 (ip), vehicle: saline with Tween-80): 102 % of control
T/C (dose: 200.0 mg/kg/injection, schedule: Q01DX001 (ip), vehicle: saline with Tween-80): 102 % of control
T/C (dose: 400.0 mg/kg/injection, schedule: Q01DX001 (ip), vehicle: saline with Tween-80): 90 % of control

Cc1ccc(S(=O)(=O)OCCN(CCOS(=O)(=O)c2ccc(C)cc2)c2ccc(N=O)cc2)cc1
T/C (dose: 25.0 mg/kg/injection, schedule: Q04DX003 (ip), vehicle: saline with Tween-80): 163 % of control
T/C (dose: 50.0 mg/kg/injection, schedule: Q04DX003 (ip), vehicle: saline with Tween-80): 168 % of control
T/C (dose: 100.0 mg/kg/injection, schedule: Q04DX003 (ip), vehicle: saline sonified): 122 % of control
T/C [4]: 177 % of control

Source: PubChem BioAssay AID330 (DTP/NCI, 2004)
